Series [1] concerns CT26 colon carcinoma. The series is described as follows: Antitumor activity in the murine CT26 colon carcinoma model. Type of series: in vivo. The note with it: for % TGI: CT26. The text has this:
Thus, there was an interest in determining whether a potentiation of an antitumor immune response could be achieved by the combination of a CTLA-4 blocking mAb and a BRAF inhibitor in a murine CT26 colon carcinoma model.
Pharmacology studies are currently being conducted in support of the proposed clinical trial evaluating the antitumor activity of the BRAF inhibitor Methyl {5-[2-chloro-2-methylphenyl)-1-hydroxy-3-oxo-2,3-dihydro-1H-isoindol-1-yl]-1H-benzimidazol-2-yl}carbamate, and ipilimumab in subjects with advanced melanoma. Efficacy studies were conducted in the CT26 colon carcinoma, a tumor model sensitive to CTLA-4 blockade.
Two different combination schedules were evaluated, concurrent and sequential. In the concurrent setting, Methyl {5-[2-chloro-2-methylphenyl)-1-hydroxy-3-oxo-2,3-dihydro-1H-isoindol-1-yl]-1H-benzimidazol-2-yl}carbamate (100 mg/kg, p.o.) was administered every other day for […] while CTLA-4 mAb (20 mg/kg, i.p.) was dosed every 4 days for 3 doses starting on day 5. In the sequential setting, Methyl {5-[2-chloro-2-methylphenyl)-1-hydroxy-3-oxo-2,3-dihydro-1H-isoindol-1-yl]-1H-benzimidazol-2-yl}carbamate (100 mg/kg, p.o.) was dosed every other day for 4 doses from day 4-10 while CTLA-4 mAb (20 mg/kg, i.p.) was dosed every 4 days for 3 doses starting on day 11. Control groups consisted of each agent dosed in combination with vehicle control following the same schedule.

Series [2] concerns OVA-specific T cells. The series is described as follows: Model of antigen-induced T-cell proliferation (OVA adoptive transfer, OVA-specific tetramer staining). Type of series: in vivo, C57BL6 mice. The conditions noted are these: CTLA-4 mAb 20 mg/kg days 1, 3; BRAF inhibitor 100 mg/kg days 1, 3, 5; erlotinib 100 mg/kg p.o. daily days 1-5; FIG. 3. As to the method:
The effect of the combination of a BRAF inhibitor and CTLA-4 mAb was evaluated in a model of antigen-induced T-cell proliferation. In this model, T cells specific for the antigen ovalbumin (OVA) were adoptively transferred into naive C57BL6 mice on study day −1. On Study Day 0, animals were challenged with 250 ug of an OVA peptide (i.v.). Animals were reandomized and divided into groups of 5. Treatments were administered as follows: CTLA-4 mAb—20 mg/kg—study days 1 and 3; Methyl {5-[2-chloro-2-methylphenyl)-1-hydroxy-3-oxo-2,3-dihydro-1H-isoindol-1-yl]-1H-benzimidazol-2-yl}carbamate—100 mg/kg—study days 1, 3, and 5. In addition, another study group received erlotinib (TARCEVA®) daily at 100 mg/kg, p.o. from study days 1 through 5. Combination groups consisted of Compound Ia and CTLA-4 mAb or erlotinib+CTLA-4 mAb following the same schedules. Control animals received the OVA challenge and no further treatment. Expansion of OVA-specific T cells was measured prior to OVA challenge and on days 2, 5, 7 and 16 by OVA-specific tetramer staining.

For series [3], the system named is SA1N fibrosarcoma. In words: Antitumor activity in the SA1N fibrosarcoma tumor model. The format is in vivo. As to the method:
In addition, combination of both agents synergistically expanded antigen-specific T cells when dosed concurrently.
In the SA1N tumor model, the effect of the combination of both agents was investigated under either a concurrent dosing regimen or a sequential schedule.
Sa1N tumors were implanted s.c. and treatments were administered as follows: Methyl {5-[2-chloro-2-methylphenyl)-1-hydroxy-3-oxo-2,3-dihydro-1H-isoindol-1-yl]-1H-benzimidazol-2-yl}carbamate, […], 20 mg/kg, Q4D×3, starting on day 17.

Series [4] deals with OVA-specific T cells. The series is described as follows: Second study in the OVA adoptive transfer model (OVA-specific T cell responses). The note with it: agent added to CTLA-4 mAb, FIG. 5. The format is in vivo, murine. The source says:
In addition, combination of both agents synergistically expanded antigen-specific T cells when dosed concurrently. The effect of this promising combination was further investigated in a) a tumor model sensitive to CTLA-4 blockade (SA1N fibrosarcoma); b) in the antigen (OVA)-specific T cell model to assess the effect of Methyl {5-[2-chloro-2-methylphenyl)-1-hydroxy-3-oxo-2,3-dihydro-1H-isoindol-1-yl]-1H-benzimidazol-2-yl}carbamate at different dose levels and compared its activity to another BRAF inhibitor (EXT-000153, Genentech) and EVRI.
Previously, the unexpected expansion of antigen-specific T cells with the use of Methyl {5-[2-chloro-2-methylphenyl)-1-hydroxy-3-oxo-2,3-dihydro-1H-isoindol-1-yl]-1H-benzimidazol-2-yl}carbamate+CTLA-4 mAb in an OVA adoptive transfer model was observed (see Example 2). Thus, a second study was designed to confirm these initial observations to determine the dose effect of Methyl {5-[2-chloro-2-methylphenyl)-1-hydroxy-3-oxo-2,3-dihydro-1H-isoindol-1-yl]-1H-benzimidazol-2-yl}carbamate and to determine whether this phenomenon could also be elicited by other RAF inhibitors. In addition, EVRI, an EGFR/VEGFR inhibitor which inhibits the MAPK pathway was also included in this experiment.

The values below come from patent US20130156768A1, “COMBINATION OF ANTI-CTLA4 ANTIBODY WITH BRAF INHIBITORS FOR THE SYNERGISTIC TREATMENT OF PROLIFERATIVE DISEASES” (Bristol-Myers Squibb Company, priority 2010, published 2013).

Regarding `COC(=O)Nc1nc2cc(C3(O)c4ccccc4C(=O)N3c3cc(Cl)ccc3C)ccc2[nH]1` (centres unmarked), the “% TGI” value worked out at 70% in series [1] (concurrent schedule, Day 26, BRAF inhibitor 100 mg/kg p.o. every other day x7 from day 4, CTLA-4 mAb 20 mg/kg i.p. every 4 days x3 from day 5) and 77% in series [1] (sequential schedule, day 26, BRAF inhibitor 100 mg/kg p.o. every other day x4 day 4-10, CTLA-4 mAb 20 mg/kg i.p. every 4 days x3 from day 11). The “complete regressions (CR)” value in series [1] (CT-26 colon carcinoma model) came to 1 CR. Also, the “OVA tetramer response (expansion of OVA-specific T cells)” value in series [2] is recorded as “effect similar to CTLA-4 mAb”. Moreover, the “toxicity of extended dosing” value in series [3] (SA1N tumor model, 7 doses used in the concurrent regimen) is on record as “toxic”. In addition, the complete regressions entry in series [3] (SA1N, sequential treatment: BRAF inhibitor 100 mg/kg Q2Dx4 from day 10, CTLA-4 mAb 20 mg/kg Q4Dx3 from day 17) was “no regression”. Moreover, the “effect on the OVA-specific T cell expansion elicited by CTLA-4 mAb” value in series [4] was “enhanced CTLA-4 blockade OVA-specific T cell expansion in a dose-related manner”.
On to `C#Cc1cccc(Nc2ncnc3cc(OCCOC)c(OCCOC)cc23)c1` [erlotinib, reference compound], for which, in series [2], the “OVA tetramer response (expansion of OVA-specific T cells)” value is “decreased the response”.
